Among the data in BindingDB's records for patent WO2022104348 (Janssen Pharmaceutica, 2022) are IC50 values, retold here.

The experiment deals with Mitogen-activated protein kinase kinase kinase 14 (Homo sapiens, UniProt Q99558). As to the kind of experiment: Inhibition of auto-phosphorylation of recombinant human NF-kappaB-inducing kinase (NIK/MAP3K14) activity. How it is done: NIK/MAP3K14 auto-phosphorylation activity was measured using the AlphaScreen (ascreen) format (Perkin Elmer). All compound6 tested were dissolved in dimethyl sulfoxide (DMSO) and further dilutions were made in assay buffer. The final DMSO concentration was 0.7% (v/v) in assays. The assay buffer was 50 mM Tris pH 7.5 containing 1 mM EGTA (ethylene glycol tetraacetic acid), 1 mM DTT (dithiothreitol), 0.1 mM NasVCO4, 5 mM MgCE, and 0.01 % Tween 20. The assays were carried out in 384 well Proxiplates (Perkin Elmer). The incubations consisted of the compound, […] Adenosine-5'-triphosphate (ATP), and 1 nM NIK/MAP3K14. Incubations were initiated by the addition of GST-tagged NIK/MAP3K14 enzyme, carried out for 2 h at 25 °C and terminated by addition of stop buffer containing anti-phospho-IKK Ser176/180 antibody. Protein A Acceptor and Glutathione-Donor bead6 were added before reading using an EnVision Multilabel Plate Reader (Perkin Elmer). The signal obtained in the wells was normalized using high (full enzyme activity, 0.7% DMSO) and low controls (no enzyme activity, 0.7% DMSO, no ATP). IC50 s were determined by fitting a sigmoidal curve to % inhibition of control versus Log compound concentration.
Chain of Mitogen-activated protein kinase kinase kinase 14 (Q99558 whole entry): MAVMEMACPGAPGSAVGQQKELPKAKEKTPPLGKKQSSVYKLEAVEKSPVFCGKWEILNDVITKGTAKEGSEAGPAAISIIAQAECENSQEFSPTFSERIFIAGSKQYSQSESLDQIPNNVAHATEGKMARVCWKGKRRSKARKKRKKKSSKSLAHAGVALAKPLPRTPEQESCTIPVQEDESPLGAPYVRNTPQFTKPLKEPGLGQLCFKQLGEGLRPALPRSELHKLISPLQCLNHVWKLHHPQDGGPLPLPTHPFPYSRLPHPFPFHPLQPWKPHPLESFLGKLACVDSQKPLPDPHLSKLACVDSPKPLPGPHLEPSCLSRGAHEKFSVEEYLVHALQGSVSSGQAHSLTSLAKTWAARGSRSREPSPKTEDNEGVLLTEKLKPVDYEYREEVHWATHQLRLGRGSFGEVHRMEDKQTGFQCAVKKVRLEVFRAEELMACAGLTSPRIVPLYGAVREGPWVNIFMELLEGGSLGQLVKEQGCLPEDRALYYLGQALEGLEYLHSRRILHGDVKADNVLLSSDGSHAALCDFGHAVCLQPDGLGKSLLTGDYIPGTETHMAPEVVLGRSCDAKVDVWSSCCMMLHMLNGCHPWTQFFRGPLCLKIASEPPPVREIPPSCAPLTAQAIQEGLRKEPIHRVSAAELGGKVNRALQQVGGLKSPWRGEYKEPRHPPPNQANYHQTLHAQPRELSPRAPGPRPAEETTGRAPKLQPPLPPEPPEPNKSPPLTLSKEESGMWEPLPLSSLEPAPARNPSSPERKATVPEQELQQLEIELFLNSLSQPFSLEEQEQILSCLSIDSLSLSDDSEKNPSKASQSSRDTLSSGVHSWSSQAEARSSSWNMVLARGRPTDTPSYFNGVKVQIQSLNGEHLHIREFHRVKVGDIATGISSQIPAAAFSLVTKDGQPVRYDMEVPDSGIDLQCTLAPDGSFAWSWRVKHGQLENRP
Usually IC50 stands for the point on the concentration scale where inhibition reaches its midpoint. In the case of `O[C@]1(c2cccc(-c3csc(-c4c[nH]c5ncccc45)n3)c2)CCc2cccnc21` [WO2022104348, Example 1], the IC50 was above 500 nM.
For `O[C@@]1(c2cccc(-c3csc(-c4c[nH]c5ncccc45)n3)c2)CCc2cccnc21` [WO2022104348, Example 2], the half-inhibitory concentration (IC50) is below 100 nM.
Consider `CN1CC[C@](O)(c2cccc(-c3cnc(-c4c[nH]c5ncccc45)s3)c2)C1=O` [WO2022104348, Example 4], for which the IC50 is above 500 nM.
With `O[C@@]1(c2cccc(-c3csc(-c4c[nH]c5ncncc45)n3)c2)CCc2cccnc21` [WO2022104348, Example 5], the IC50 was below 100 nM.
The figure for `Cc1cnc2[nH]cc(-c3nc(-c4cccc([C@]5(O)CCN(C)C5=O)c4)cs3)c2c1` [WO2022104348, Example 7] is below 100 nM; for `CN1CC[C@@](O)(c2cccc(-c3nc(-c4c[nH]c5ncccc45)cs3)c2)C1=O` [WO2022104348, Example 8] it is below 100 nM.
As for `O[C@]1(c2cccc(-c3csc(-c4c[nH]c5ncccc45)n3)c2)Cc2nccn2C1` [WO2022104348, Example 10], the figure is below 100 nM.
For `O[C@]1(c2cccc(-c3csc(-c4c[nH]c5nccnc45)n3)c2)OCc2cccnc21` [WO2022104348, Example 17], the IC50 was below 100 nM.
The figure for `O[C@@]1(c2cccc(-c3csc(-c4c[nH]c5ncc(C(F)(F)F)cc45)n3)c2)Cc2nccn2C1` [WO2022104348, Example 25] is below 100 nM; for `N#Cc1cnc2[nH]cc(-c3nc(-c4cccc([C@]5(O)Cc6nccn6C5)c4)cs3)c2c1` [WO2022104348, Example 26] it is below 100 nM; for `O[C@@]1(c2cccc(-c3csc(-c4c[nH]c5ncc(Cl)cc45)n3)c2)Cc2nccn2C1` [WO2022104348, Example 27] it is below 100 nM.
The figure for `O[C@@]1(c2cccc(-c3csc(-c4c[nH]c5ncccc45)n3)c2)CCc2scnc21` [WO2022104348, Example 32] is below 100 nM; for `O[C@@]1(c2cccc(-c3csc(-c4c[nH]c5ncccc45)n3)c2)C=Cc2cccnc21` [WO2022104348, Example 33] it is below 100 nM.
The figure for `O[C@]1(c2cccc(-c3csc(-c4c[nH]c5ncccc45)n3)c2)C=Cc2cccnc21` [WO2022104348, Example 34] is above 500 nM.
Regarding `CC1(C)Cc2cccnc2[C@@]1(O)c1cccc(-c2csc(-c3c[nH]c4ncccc34)n2)c1` [WO2022104348, Example 35], the IC50 was above 500 nM.
Turning to `CC1(C)Cc2cccnc2[C@]1(O)c1cccc(-c2csc(-c3c[nH]c4ncccc34)n2)c1` [WO2022104348, Example 36], the IC50 was below 100 nM.
The figure for `O[C@]1(c2cccc(-c3csc(-c4c[nH]c5ncccc45)n3)c2)CCCn2ccnc21` [WO2022104348, Example 37] is above 500 nM.
The figure for `O[C@@]1(c2cccc(-c3csc(-c4c[nH]c5ncccc45)n3)c2)CCCn2ccnc21` [WO2022104348, Example 38] is below 100 nM; for `CN1CC[C@](O)(c2cccc(-c3csc(-c4c[nH]c5ncccc45)n3)c2)C1=O` [WO2022104348, Example 39] it is above 500 nM; for `CN1CC[C@@](O)(c2cccc(-c3csc(-c4c[nH]c5ncccc45)n3)c2)C1=O` [WO2022104348, Example 40] it is below 100 nM.
The figure for `O[C@@]1(c2cccc(-c3csc(-c4c[nH]c5nccnc45)n3)c2)CCn2ccnc21` [WO2022104348, Example 41] is below 100 nM; for `O=C1N(CC(F)(F)F)CC[C@]1(O)c1cccc(-c2csc(-c3c[nH]c4nccnc34)n2)c1` [WO2022104348, Example 43] it is above 500 nM.
On to `O=C1N(CC(F)(F)F)CC[C@@]1(O)c1cccc(-c2csc(-c3c[nH]c4nccnc34)n2)c1` [WO2022104348, Example 44], for which the IC50 was above 500 nM.
In the case of `CN1C[C@@](O)(c2cccc(-c3csc(-c4c[nH]c5nccnc45)n3)c2)C1=O` [WO2022104348, Example 45], the IC50 is above 500 nM.
In the case of `CN1C[C@](O)(c2cccc(-c3csc(-c4c[nH]c5nccnc45)n3)c2)C1=O` [WO2022104348, Example 46], the IC50 is above 500 nM.
As for `COc1cnc2[nH]cc(-c3nc(-c4cccc([C@]5(O)CCN(C)C5=O)c4)cs3)c2c1` [WO2022104348, Example 49], the figure is below 100 nM; as for `CN1CC[C@@](O)(c2cccc(-c3nc(-c4c[nH]c5ncccc45)sc3CO)c2)C1=O` [WO2022104348, Example 50], below 100 nM; as for `CN1CC[C@@](O)(c2cccc(-c3csc(-c4c[nH]c5ncc(C(=O)O)cc45)n3)c2)C1=O` [WO2022104348, Example 51], below 100 nM.
As for `CN1CC[C@@](O)(c2cccc(-c3csc(-c4c[nH]c5ncncc45)n3)c2)C1=O` [WO2022104348, Example 53], the figure is below 100 nM.
For `CN1CCC[C@](O)(c2cccc(-c3csc(-c4c[nH]c5nccnc45)n3)c2)C1=O` [WO2022104348, Example 55], the IC50 was above 500 nM.
On to `Cc1sc(-c2c[nH]c3nccnc23)nc1-c1cccc([C@]2(O)CCN(C)C2=O)c1` [WO2022104348, Example 66], for which the half-maximal inhibitory concentration (IC50) was below 100 nM.
As for `Cc1ccc([C@]2(O)CCN(C)C2=O)cc1-c1csc(-c2c[nH]c3nccnc23)n1` [WO2022104348, Example 67], the figure is below 100 nM; as for `Cc1cc(-c2csc(-c3c[nH]c4nccnc34)n2)cc([C@]2(O)CCN(C)C2=O)c1` [WO2022104348, Example 68], below 100 nM; as for `Cc1ccc(-c2csc(-c3c[nH]c4nccnc34)n2)cc1[C@@]1(O)CCN(C)C1=O` [WO2022104348, Example 70], above 500 nM.
As for `O[C@@]1(c2cccc(-c3csc(-c4n[nH]c5cccnc45)n3)c2)CCn2ccnc21` [WO2022104348, Example 75], the figure is at most 500 nM; as for `C[C@@](O)(c1cccc(-c2csc(-c3c[nH]c4nccnc34)n2)c1)c1ncc[nH]1` [WO2022104348, Example 77], above 500 nM; as for `C[C@](O)(c1cccc(-c2csc(-c3c[nH]c4nccnc34)n2)c1)c1ncc[nH]1` [WO2022104348, Example 78], above 500 nM.
In the case of `Cn1ccnc1[C@@](C)(O)c1cccc(-c2csc(-c3c[nH]c4ncccc34)n2)c1` [WO2022104348, Example 79], the IC50 is above 500 nM.
As for `C[C@@](O)(c1cccc(-c2csc(-c3c[nH]c4ncccc34)n2)c1)c1ncc[nH]1` [WO2022104348, Example 80], the figure is above 500 nM; as for `Cc1cnc2[nH]cc(-c3nc(-c4cccc([C@@]5(O)CCn6ccnc65)c4)cs3)c2n1` [WO2022104348, Example 81], below 100 nM.
`Cc1cnc2c(-c3nc(-c4cccc([C@]5(O)CCn6ccnc65)c4)cs3)c[nH]c2n1` [WO2022104348, Example 83]: the IC50 was below 100 nM.
As for `O[C@@]1(c2cccc(-c3csc(-c4c[nH]c5ncccc45)n3)c2)COc2cccnc21` [WO2022104348, Example 85], the figure is above 500 nM; as for `O[C@@]1(c2cccc(-c3csc(-c4c[nH]c5nccnc45)n3)c2)COc2cccnc21` [WO2022104348, Example 86], above 500 nM; as for `Cc1ccnc2[nH]cc(-c3nc(-c4cccc([C@]5(O)CCn6ccnc65)c4)cs3)c12` [WO2022104348, Example 87], below 100 nM.
The figure for `O[C@@]1(c2cccc(-c3csc(-c4c[nH]c5nnccc45)n3)c2)CCn2ccnc21` [WO2022104348, Example 88] is below 100 nM.
